“Also recorded” adds a separate entry of the source.
Columns and labels:
[1] = Plasma pharmacokinetics of cocaine and benzoylecgonine after IV cocaine-d5 infusion; conditions: for Cmax: cocaine-d5 IV 0.5 mg/kg over 10 min then 2 mg/kg over 4 h; for Cmax / (t1/2)z / AUC (0-∞) / AUC(0-t) / AUCext / Tmax / λz: mean ± SD
Method: In this open-label, unblinded study, a 0.5 mg/kg intravenous loading dose of cocaine-d5 HCl over 10 minutes was followed by a slow 4 hour constant rate cocaine-d5 infusion of 2.0 mg/kg(~175 mg for a 70 kg person). […] When this method of cocaine administration is utilized, a larger dose can be given over a longer period of time and approximates frequently reported patterns of cocaine use. This method also allowed for close monitoring and termination of the infusion if untoward psychiatric or cardiovascular effects occurred.
For both cocaine infusions (sessions 1 and 2), plasma samples for cocaine and metabolites (~6 ml) were obtained 5 minutes before and 10 minutes, 0.5, 1, 1.5, 2, 4, 4.25, 4.5, 5, 6, 8, 12, 21, 27, 33, and 45 hours after each cocaine infusion.
Plasma concentrations of cocaine and benzoylecgonine were measured in our laboratory using a method we developed. The method allows for simultaneous determination of cocaine, benzoylecgonine, and deuterium-labeled analogs [cocaine-d5 and benzoylecgonine-d5 (BE-d5)] by using combined gas chromatography-mass spectrometry (GC-MS). Differently labeled stable isotope analogs were used as internal standards. The calibration curves were from 5 to 2,000 ng/mL for cocaine-d5 and 10 to 2,000 ng/mL for BE-d5. Lower limits of quantitation (LLOQ) were 5 ng/ml (cocaine-d5) and 10 ng/ml (BE-d5) in plasma. Qualitative urine benzoylecgonine was measured by Northwest Toxicology Laboratory, Salt Lake City, Utah, using the Roche Diagnostics Online® immunoassay.
The plasma concentration-time profiles for cocaine and benzoylecgonine (BE) were analyzed by non-compartmental methods, utilizing the pharmacokinetic data analysis program WinNonlin Pro, version 3.0 [31].
The area under the plasma concentration-time curve was calculated using the linear trapezoidal rule up to the maximum plasma concentration, and thereafter using the logarithmic trapezoidal rule to the last measurable plasma concentration. The remaining area was extrapolated to infinity by dividing the last appropriate plasma concentration by the terminal exponential rate constant.
Maximum plasma concentration (Cmax) and time of maximum plasma concentration (Tmax) were determined by visual inspection of data. "Terminal" exponential half-life [(t1/2)z] was calculated from log-linear regression of "terminal" exponential phase data points. Cocaine clearance (CL) and terminal exponential volume of distribution (Vz) were calculated by conventional equations: CL = [Dose/Area under the curve (AUC)0-∞] and Vz = CL/λz, respectively, where λz ("terminal" exponential rate constant) = ln2/(t1/2)z. […] Amount of BE in urine samples was calculated by multiplying concentration by volume.

[2] = Selegiline and metabolites excreted in 24 hour urine collections; type: in vivo, human; set-up: unit not given here; conditions: Mean ± SD, N = 12
Method: (§1) When subjects were in the GCRC, all urine was collected and volumes recorded. Following each cocaine infusion, urine was collected in fractions from 0 to 24, 24 to 48, and 48 to 72 hours (timed from the start of the infusion). Samples were then frozen at -70°C until analyzed. […] A qualitative screen for drugs of abuse was obtained every other day for the entire study period.
(§2) All analyses employed a one-factor repeated-measures analysis of variance (ANOVA), with all parameters analyzed as their logarithmic (natural) transforms. If a day effect was found between days 9, 11, 12, and 13, a Tukey multiple comparison procedure was employed posthoc to compare the days in pairs. A test for linear trend was included. All probability estimates presented are based on the Type III sums of squares.

[3] = test system: nondependent cocaine-experienced subjects; experiment: Physiologic measures during cocaine challenge sessions; type: in vivo, human; conditions: session 2 vs session 1; peak effects and effects across time
Method: Heart rate, systolic and diastolic blood pressure were measured using a cardiovascular monitor (Dinamap by Critikon, Vital Signs Monitor 1846 SX). Rate pressure product was calculated as the product of systolic blood pressure and heart rate. Respiration rate was measured by counting the number of inhalations per minute. These vital signs were determined with the patient in a supine position for at least 10 minutes.
(§3) Heart rate, blood pressure, respiration rate, skin and core temperature were recorded at specific times during the study. During infusions, measures were obtained pre-dose and at 0.17, 0.5, 0.75, 1, 1.5, 2, 2.5, 3, 3.5, 4, 4.25, 4.5, 5, 6, 8, 12, 18, 24, 36, 48, and 72 hours after dosing. The electrocardiogram was monitored continuously during the infusion and for 4 hours after the termination of the intravenous cocaine infusion. EKG tracings were recorded at each data collection point.
(§4) The time courses of physiologic and subjective data were analyzed by repeated measures analysis of variance (ANOVA). Treatment conditions (Sessions 1 and 2) and observation times (hours post-dose) were considered within-subject factors. Change scores (post-dose minus pre-dose values) were used in most analyses. Raw score were used where indicated. After a significant F test, pairwise comparisons of treatment conditions were performed using the least squares means analysis. Peak effects within a session were determined for each subject and each variable and analyzed using a one-factor repeated measures ANOVA. Effects were considered statistically significant at p = 0.05. Data were adjusted for sphericity using the Huynh-Feldt adjustment factor. Huynh-Feldt-corrected significance values are reported.

[4] = test system: nondependent cocaine-experienced subjects; experiment: Adverse events and cardiovascular safety monitoring; type: in vivo, human; conditions: STS 6 mg/24 hours
Method: as §3

[5] = test system: nondependent cocaine-experienced subjects; experiment: Subjective measures (verbal ratings, visual analog scales, POMS) during cocaine challenge sessions; type: in vivo, human
Source text: Verbal ratings of global intoxication and craving (on a scale of 0 to 100) were obtained at the same time points as the physiologic measures, with 0 representing no drug effect and 100 representing the highest level of intoxication or craving.
Visual analog scales were used to rate the degree of drug liking by moving an arrow along a 10 cm line marked at opposite ends as 0 (not at all) and 100 (extreme) using a hand-held computer (Tandy 102). Items rated on the visual analog scale included "good drug effect" and "bad drug effect," and were obtained prior to cocaine infusion and at 0.17, 0.5, 0.75, 1, 1.5, 2, 2.5, 3, 3.5, 4, 4.25, 4.5, 5, 6, and 8 hours after dosing.
The Profile of Mood States (POMS) assessed mood changes in Anger, Confusion, Fatigue, Tension, and Vigor on a scale from 0 to 4, where 0 indicated "no effect" and 4 indicates "extremely strong". Ratings were obtained prior to cocaine infusion and at 1, 3, and 6 hours after dosing.
as §4

noradrenergic tone = experiment: Urinary MHPG-S excretion (surrogate for noradrenergic tone, MAO-A metabolite); type: in vivo, human
Source text: The interactions between MAO-A inhibitors and cocaine administered are largely unexplored. […] Therefore, measurement of dopaminergic and noradrenergic tone may be important in predicting toxic events. We measured dopaminergic tone with the surrogate marker of plasma HVA, the major brain metabolite of dopamine, and serum levels of prolactin, a hormone whose secretion is inhibited by dopamine. The surrogate for noradrenergic tone was urine concentrations of MHPG-S. In order to assess the degree of MAO-A and MAO-B inhibition, we assayed concentrations of a substrate of MAO-B, phenylethylamine (PEA). PEA would be expected to increase with MAO-B inhibition, and concentrations of MHPG-S, which is a metabolite of norepinephrine produced by MAO-A primarily in the brain [20], would be expected to decrease.
as §1
Concentrations of MHPG-S in urine were determined using LC-MS/MS [29]. […] As urinary creatinine excretion is directly related to glomerular filtration and renal blood flow, and urinary creatinine excretion is relatively constant (~1 gm/day), it can be used to estimate concentrations of a substance during a 24 hour urine collection period. Using ratios of the concentrations of MHPG-S to creatinine obtained from assays of these spot urine samples, MGPG-S concentrations during the outpatient period (when subjects would be unlikely to provide accurate 24 hour urine collections) were compared to those from urine samples on inpatient days.

[6] = Trough plasma concentrations of selegiline and metabolites; type: in vivo, human; conditions: days 9, 11, 12, and 13 of STS; p for linear trend <0.001 (l-methamphetamine) and <0.01 (l-amphetamine)
Source text: as §2

[7] = Pre Selegiline (session 1), plasma
[8] = With Selegiline (session 2), plasma
[9] = 0–24 hours after cocaine (day 11), STS 6 mg/24 hours
[10] = 24–48 hours after cocaine (day 12), STS 6 mg/24 hours
[11] = 48–72 hours after cocaine (day 13), no patch applied at 9 AM on day 14

CN1[C@H]2CC[C@@H]1[C@@H](C(=O)O)[C@@H](OC(=O)c1ccccc1)C2 [Benzoyl-ecgonine, benzoylecgonine]
Cmax [1, 7]: 1045 ± 180 ng/mL | (t1/2)z [1, 7]: 8.63 ± 5.36 h | AUC (0-∞) [1, 7]: 13600 ± 3820 ng·h/mL | AUC(0-t) [1, 7]: 13000 ± 3030 ng·h/mL | AUCext [1, 7]: 3.45 ± 6.45% | Tmax [1, 7]: 4.79 ± 0.50 h | λz [1, 7]: 0.0928 ± 0.023 h⁻¹ | (t1/2)z [1, 8]: 7.52 ± 1.82 h | AUC (0-∞) [1, 8]: 13200 ± 4180 ng·h/mL | AUC(0-t) [1, 8]: 12900 ± 3760 ng·h/mL | AUCext [1, 8]: 2.21 ± 2.24% | Tmax [1, 8]: 5.04 ± 0.65 h | λz [1, 8]: 0.0971 ± 0.024 h⁻¹ | Cmax ([1]; With Selegiline (session 2, after one week STS 6 mg/24 hours), plasma): 957 ± 184 ng/mL | BE AUC relative to that of cocaine ([1]; plasma, after IV cocaine-d5 infusion): approximately 5.9 times

C#CCNC(C)Cc1ccccc1 (centres unmarked) [Desmethylselegiline, n-desmethylselegiline]
Excreted in the 24 Hour Urine [2, 9]: 0.184 ± 0.128 | Excreted in the 24 Hour Urine [2, 10]: 0.188 ± 0.162 | Excreted in the 24 Hour Urine [2, 11]: 0.082 ± 0.086

C#CCN(C)[C@H](C)Cc1ccccc1 [Selegiline, selegiline]
Effect of selegiline on cocaine-induced physiological effects [3]: Neither peak effects (Table 3) nor physiological effects across time were affected | Adverse events ([4]; cocaine-d5 IV 2.5 mg/kg over 4 hours, 2.5 mg/kg): One subject reported erectile dysfunction; also recorded: One subject experienced anxiety and one reported insomnia | Cardiovascular adverse effects (orthostatic vital signs and cardiovascular monitoring) ([4]; selegiline maintenance phase): no adverse cardiovascular effects | Excreted in the 24 Hour Urine [2, 9]: 0.109 ± 0.073 | Excreted in the 24 Hour Urine [2, 10]: 0.145 ± 0.138 | Excreted in the 24 Hour Urine [2, 11]: 0.063 ± 0.097 | Verbal ratings of craving, second session vs first ([5]; between 1.5 and 4.5 hours after cocaine, condition × time significant): lower | POMS anger, tension and total score scales across time, second session vs first ([5]; second cocaine session (after selegiline)): significantly different (lower) | Total Amount of MHPG-S Excreted in the 24 Hour Urine Collection (noradrenergic tone; Day 4–5, 0–24 hr Postselegiline): 1.43 ± 0.40 mg | Total Amount of MHPG-S Excreted in the 24 Hour Urine Collection (noradrenergic tone; Day 11–12 Selegiline Phase 1st Day After Cocaine): 1.09 ± 0.23 mg | Total Amount of MHPG-S Excreted in the 24 Hour Urine Collection (noradrenergic tone; Day 12–13 Selegiline Phase 2nd Day After Cocaine): 1.07 ± 0.40 mg | Total Amount of MHPG-S Excreted in the 24 Hour Urine Collection (noradrenergic tone; Day 13–14 Selegiline Phase 3rd Day After Cocaine, no patch applied at 9 AM on Day 14): 1.01 ± 0.33 mg | Effect of selegiline on cocaine or BE plasma pharmacokinetics ([1]; after removal of the two outliers, STS 6 mg/24 hours for one week): No effect

CN[C@H](C)Cc1ccccc1 [l-Methamphetamine, l-methamphetamine]
Excreted in the 24 Hour Urine [2, 9]: 6.26 ± 2.28 | Excreted in the 24 Hour Urine [2, 10]: 8.51 ± 5.69 | Excreted in the 24 Hour Urine [2, 11]: 4.83 ± 1.55 | Trough plasma concentrations over time [6]: increased over time

Reference: article PMC2731040 (BMC Clinical Pharmacology, 2009)
